System: P. aeruginosa biofilms
Test: Antimicrobial susceptibility of biofilms grown in rotating disk reactor (viable cell counts)
Assay type: cell-based
Conditions: control biofilms grown without conalbumin, FIG. 5
Description: P. aeruginosa biofilms for susceptibility tests were grown in a rotating disk reactor. Fe-unsaturated conalbumin (Sigma Chemical Co.) was added to standard biofilm medium at indicated concentrations for the duration of biofilm growth. Discs and attached bacteria were then washed 3 times in distilled water, and treated for 4 h in 1 ml of H2O2 (Fisher Scientific) or tobramycin (Eli Lilly, Indianapolis, Ind.) at indicated concentrations. The treated discs were washed 3 times, and bacteria were removed and dispersed in 2 ml sterile PBS by homogenization (Brinkman Homogenizer, model 10/35). Viable cell numbers were enumerated by plate counting.

## OO [H2O2, reference compound]
500 mM H2O2, 4 h of treatment
  effect on viability of control biofilms: minimal effects on viability

## NC[C@H]1O[C@H](O[C@H]2[C@H](O)[C@@H](O[C@H]3O[C@H](CO)[C@@H](O)[C@H](N)[C@H]3O)[C@H](N)C[C@@H]2N)[C@H](N)C[C@@H]1O [tobramycin, reference compound]
1000 μg/ml tobramycin, 4 h of treatment
  effect on viability of control biofilms: minimal effects on viability

Reference: US8343911B2, “Methods of inhibiting and treating bacterial biofilms by metal chelators” (University of Iowa Research Foundation, priority 2002, dated 2013)
